# Reference: article PMC7498065, “Isolation of antigen-specific, disulphide-rich knob domain peptides from bovine antibodies” (PLoS Biology, 2020)
# “Also recorded” adds a separate entry of the source. Where no end group is shown, it is not given here.
# Target: Complement component C5 (Homo sapiens, UniProt P01031)
# Assay: Biacore SPR single-cycle kinetics of isolated knob domain peptides binding to C5
# Protocol: For knob domain peptides, flow cells were activated using a standard immobilisation protocol: EDC/NHS was mixed at 1:1 ratio (flow rate, 10 μL/min; contact time, 30 s). C5, at 1 μg/mL in pH 4.5 sodium-acetate buffer, was immobilized on flow cell 2 only (flow rate, 10 μL/min; contact time, 420 s). Finally, ethanolamine was applied to both flow cells (flow rate, 10 μL/min; contact time, 420 s). A final immobilization level of approximately 1,500–2,000 response units was obtained for peptide samples. For the PGT121-K149 fusion protein and K149 knob domain, the same immobilisation protocols were used but with a 750 ng/mL solution of C5, instead of 1 μg/mL.
# One-micromolar stock solutions of the analytes (PGT121 knob domain fusion proteins and free knob domain peptides) were prepared in HBS-EP buffer. A series of six 3-fold dilutions of each stock solution was prepared in the same buffer. The result was 7 solutions for each analyte, at concentrations ranging from 1 μM down to 1.37 nM. A high flow rate of 40 μL/min was used, with a contact time of 230 s and a dissociation time of 1,800 s for knob domain peptides and 10,000 s for PGT121 knob domain fusion proteins. For the PGT121-K149 fusion protein and K149 knob domain, the flow rate was further increased to 100 μL/min. Binding to the reference surface was subtracted, and the data were fitted to a single-site binding model using Biacore evaluation software. Data were inspected for evidence of mass transport limitation using the flow-rate–independent component of the mass transfer constant (tc).
# Chain of Complement component C5 (P01031 19-673 limits assumed): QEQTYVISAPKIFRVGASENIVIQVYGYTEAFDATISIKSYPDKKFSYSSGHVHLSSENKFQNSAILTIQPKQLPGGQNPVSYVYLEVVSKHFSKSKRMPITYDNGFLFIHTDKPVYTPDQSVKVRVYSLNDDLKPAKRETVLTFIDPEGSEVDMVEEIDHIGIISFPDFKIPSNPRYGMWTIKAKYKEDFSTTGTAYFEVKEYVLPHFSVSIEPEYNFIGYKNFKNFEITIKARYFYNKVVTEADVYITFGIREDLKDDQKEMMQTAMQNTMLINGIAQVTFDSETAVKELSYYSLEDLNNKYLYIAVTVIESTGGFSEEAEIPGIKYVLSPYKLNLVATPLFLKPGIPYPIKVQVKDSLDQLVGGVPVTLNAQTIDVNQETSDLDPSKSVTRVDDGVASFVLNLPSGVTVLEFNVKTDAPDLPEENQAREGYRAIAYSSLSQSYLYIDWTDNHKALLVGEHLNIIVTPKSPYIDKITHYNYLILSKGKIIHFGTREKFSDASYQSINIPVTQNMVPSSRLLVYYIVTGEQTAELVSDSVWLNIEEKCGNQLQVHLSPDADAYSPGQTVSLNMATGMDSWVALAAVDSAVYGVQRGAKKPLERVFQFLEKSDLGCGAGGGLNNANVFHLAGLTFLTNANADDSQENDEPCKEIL
# Chain of Complement component C5 (P01031 678-1676 limits assumed): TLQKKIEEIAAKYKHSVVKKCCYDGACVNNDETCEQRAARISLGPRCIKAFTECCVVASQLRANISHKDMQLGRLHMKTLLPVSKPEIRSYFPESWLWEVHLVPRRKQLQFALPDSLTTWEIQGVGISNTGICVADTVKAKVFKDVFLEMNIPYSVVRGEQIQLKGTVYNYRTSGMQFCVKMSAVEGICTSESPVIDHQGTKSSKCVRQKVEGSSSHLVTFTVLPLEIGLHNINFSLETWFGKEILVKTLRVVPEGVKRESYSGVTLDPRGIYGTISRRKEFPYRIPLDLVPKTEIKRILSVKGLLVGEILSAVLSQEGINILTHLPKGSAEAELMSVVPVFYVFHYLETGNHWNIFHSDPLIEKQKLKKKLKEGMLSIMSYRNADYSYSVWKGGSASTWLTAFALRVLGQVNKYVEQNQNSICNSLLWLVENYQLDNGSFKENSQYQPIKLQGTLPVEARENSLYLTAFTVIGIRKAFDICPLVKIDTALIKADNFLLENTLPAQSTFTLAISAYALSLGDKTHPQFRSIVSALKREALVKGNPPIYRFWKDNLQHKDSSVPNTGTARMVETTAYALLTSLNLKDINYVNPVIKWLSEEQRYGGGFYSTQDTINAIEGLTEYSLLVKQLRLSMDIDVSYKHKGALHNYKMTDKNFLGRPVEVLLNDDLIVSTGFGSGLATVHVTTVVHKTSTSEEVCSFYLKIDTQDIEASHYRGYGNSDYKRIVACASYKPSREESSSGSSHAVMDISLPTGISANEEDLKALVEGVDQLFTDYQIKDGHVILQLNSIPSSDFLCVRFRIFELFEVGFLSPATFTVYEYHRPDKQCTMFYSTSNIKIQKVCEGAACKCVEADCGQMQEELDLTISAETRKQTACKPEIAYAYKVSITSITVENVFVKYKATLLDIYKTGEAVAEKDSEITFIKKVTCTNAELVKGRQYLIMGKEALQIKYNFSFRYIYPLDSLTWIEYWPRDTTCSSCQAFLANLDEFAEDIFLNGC
sequence,measurement,setting,value
"GKSCREGYIDGGGCCLPGSCRGCACSYYDWLKCPRDCRGTSEEENLYFQ (also: bicyclic or more (positions not given here)) [K60, isolated bovine knob domain peptide, TEV-excised from PGT121 Fab]",mean KD,"SPR single-cycle kinetics, 1:1 model, mean of 3 experiments (Fig 6)",not to bind; also recorded: Non-binding
same,Mean Stoichiometric ratio at 1 µM,"SPR, analyte 1 µM, mean of n=3 occasions",<0.1
same,Stoichiometric ratio at 1 µM,occasion n=1,<0.1
same,Stoichiometric ratio at 1 µM,occasion n=2,<0.1
same,Stoichiometric ratio at 1 µM,occasion n=3,<0.1
